This note sets out measurements from publication PMC9364363 (RSC Advances, 2022).

Series [1] has as its system MRC-5 lung fibroblast cell line.
For series [2], the system named is M. intracellulare. In words: microbe, parasite or virus in culture. It is filed as cell-based, Mycobacterium intracellulare. The settings on record: read-out: IC50 M. intracellulare.
In series [3] the test system is M. abscessus. Nature of the series: microbe, parasite or virus in culture. It is filed as cell-based, Mycobacterium abscessus. The note with it: read-out: IC50 M. abscessus.
Series [4] deals with M. avium subsp. avium. In words: microbe, parasite or virus in culture. Type of series: cell-based, Mycobacterium avium subsp. avium. The settings on record: read-out: IC50 M. avium subsp. avium.
The subject of series [5] is M. smegmatis. Type of series: cell-based, Mycobacterium smegmatis. The settings on record: read-out: IC50 M. smegmatis; luminometry, 3 days.
The subject of series [6] is Mtb H37Ra^lux. Nature of the series: microbe, parasite or virus in culture. Type of series: cell-based, Mycobacterium tuberculosis. The settings on record: for IC50: read-out: Mtb H37Ra^lux IC50; for MIC: read-out: Mtb H37Ra^lux IC90 (MIC).
The nature of series [7]: in vitro. The settings on record: human.
Where [8] appears, read: Mycobacterium intracellulare, 168 h.
Where [9] appears, read: Mycobacteroides abscessus, 72 h.
Setting [10] is: Mycobacterium tuberculosis, H37RA, 168 h.

Converted amounts (≈) assume the structure as drawn. Where two headings read alike, the source gives them in different places. Where only a bound is given, the exact number is not on record here.

What is called IC50 is the point on the concentration scale where inhibition reaches its midpoint. In the case of “(4-(2-(4-((1H-Benzo-[d]-imidazole-2-yl)-thio)-1H-1,2,3-triazol-1-yl)-ethyl)-piperazin-1-yl)(2-methylbenzo-[d]-imidazo[2,1-b]-thiazol-3-yl)-methanone [IT16]”, the “T.I. CC50/IC50” value in series [1] was found to be 8.2. Further, the half-maximal inhibitory concentration (IC50) in series [2] (luminometry, 7 days) was above 128 µM; in series [3] (luminometry, 3 days), above 128 µM; in series [4] (luminometry, 7 days), 124 µM; in series [5] it was 103 µM; in series [6], 7.09 µM. The “Mtb H37Ra^lux IC90 (MIC)” value in series [6] came out at 14.49 µM.
On to `Cc1nc2sccn2c1C(=O)N1CCN(CCn2cc(-c3ccc(C(C)(C)C)cc3)nn2)CC1` [IT02, (4-(2-(4-(4-(tert-Butyl)phenyl)-1H-1,2,3-triazol-1-yl)-ethyl)-piperazin-1-yl)(6-methylimidazo-[2,1-b]-thiazol-5-yl)-methanone], for which the “T.I. CC50/IC50” value in series [1] amounted to 8.8. For the same molecule, the IC50 was 119 µM in series [2] (setting [8]); above 128 µM in series [3] (setting [9]); 126 µM in series [4] (Mycobacterium avium, 168 h); 5.2 µM in series [6] (setting [10]). This molecule returned a CC50 in series [7] of 46 µM. In series [6] (setting [10]), the MIC was 12.8 µM (≈ 6.13 µg/mL).
For `Cc1nc2sc3ccccc3n2c1C(=O)N1CCN(Cc2cn(-c3cccc(Cl)c3)nn2)CC1` [IT11, (4-((1-(3-Chlorophenyl)-1H-1,2,3-triazol-4-yl)-methyl)-piperazin-1-yl)(2-methylbenzo-[d]-imidazo-[2,1-b]-thiazol-3-yl)-methanone], the “T.I. CC50/IC50” value in series [1] came out at 7.6. Also, the concentration for half-maximal inhibition (IC50) in series [2] (setting [8]) was 98.8 µM; in series [3] (setting [9]), above 128 µM; in series [4] (Mycobacterium avium, 168 h), 100 µM; in series [6] (setting [10]), 3.86 µM. This molecule also displayed a CC50 in series [7] of 29.4 µM. In addition, the MIC in series [6] (setting [10]) came to 14.5 µM (≈ 7.11 µg/mL).
With `CCCCCCCCCc1cn(CCN2CCN(C(=O)c3c(C)nc4sccn34)CC2)nn1` [IT03, (6-Methylimidazo-[2,1-b]-thiazol-5-yl)(4-(2-(4-nonyl-1H-1,2,3-triazol-1-yl)-ethyl)-piperazin-1-yl)-methanone], the “T.I. CC50/IC50” value in series [1] is 15.8. In addition, the half-maximal inhibitory concentration (IC50) in series [2] (setting [8]) is 63.4 µM; in series [3] (setting [9]) it was above 128 µM; in series [4] (Mycobacterium avium, 168 h), above 128 µM; in series [6] (setting [10]) it was 2.88 µM. In series [7], the CC50 amounted to 45.5 µM. Moreover, the MIC in series [6] (setting [10]) was 10.2 µM (≈ 4.82 µg/mL).
